Experimental data from patent US11667602B2, “Compounds and their use” (AstraZeneca AB, priority 2020, dated 2023).
In brackets after ≈: the same amount, converted by molar mass.

How the values were obtained:
[1] = target: T1, human RXFP1 (Homo sapiens, UniProt Q9HBX9); assay: RXFP1 Hu cAMP (Test A); format: cell-based; set-up: expressed in transfected cells; host or cells: Jump-In T-REx CHO-K1 cells (ThermoFisher), induced with 10 ng/ml doxycycline for 24 h; settings: RXFP1 Hu cAMP; for EC50: read-out: Test A EC50
T1 sequence (Q9HBX9 1-757): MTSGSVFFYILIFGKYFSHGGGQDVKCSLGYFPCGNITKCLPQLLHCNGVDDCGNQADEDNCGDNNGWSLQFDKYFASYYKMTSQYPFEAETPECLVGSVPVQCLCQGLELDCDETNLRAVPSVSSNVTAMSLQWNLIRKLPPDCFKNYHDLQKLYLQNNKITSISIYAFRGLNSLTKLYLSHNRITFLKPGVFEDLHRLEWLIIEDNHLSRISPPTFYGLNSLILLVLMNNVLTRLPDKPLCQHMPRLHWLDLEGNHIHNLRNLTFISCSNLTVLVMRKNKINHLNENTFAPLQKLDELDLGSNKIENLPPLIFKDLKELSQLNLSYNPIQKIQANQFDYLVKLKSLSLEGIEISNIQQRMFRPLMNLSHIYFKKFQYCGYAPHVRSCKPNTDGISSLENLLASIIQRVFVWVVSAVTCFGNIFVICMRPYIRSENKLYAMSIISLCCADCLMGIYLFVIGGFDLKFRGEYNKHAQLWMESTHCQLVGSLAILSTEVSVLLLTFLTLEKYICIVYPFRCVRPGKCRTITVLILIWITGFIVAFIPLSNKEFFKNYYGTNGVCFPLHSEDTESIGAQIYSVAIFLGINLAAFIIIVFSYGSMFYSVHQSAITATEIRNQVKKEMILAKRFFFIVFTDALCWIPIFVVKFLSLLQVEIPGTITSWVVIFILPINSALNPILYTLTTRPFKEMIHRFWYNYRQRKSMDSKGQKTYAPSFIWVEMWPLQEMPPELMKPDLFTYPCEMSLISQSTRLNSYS
Outline: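 Cells: CHO-K1 stably carrying human RXFP1, expressed after 24 h 10 ng/ml doxycycline; 0.5 mM IBMX final, HTRF detection after 2 h at room temperature.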

[2] = Solubility (Test F); format: physicochemical; settings: arithmetic mean if run multiple times
Description: The assay was conducted according to the Solubility Assay described in pages 164-167 of Wernevik, J. et al., “A Fully Integrated Assay Panel for Early Drug Metabolism and Pharmacokinetics Profiling”, Assay and Drug Development Technologies, 2020, 18(4), 157-179. Data are reported in Table 36 as solubility ([…]. Where the assay was run multiple times for the same compound, the arithmetic mean is reported.

[3] = Human Liver Microsomal Stability (Test C); format: in vitro ADME; settings: human, liver microsomes
Outline: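 Human liver microsome incubation per the Wernevik et al. integrated DMPK panel protocol. Intrinsic clearance reported as CLint in μl/min/mg protein, averaged arithmetically over repeat runs.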

[4] = Rat Hepatocyte Stability (Test E); format: in vitro ADME; settings: rat, hepatocytes, geometric mean if run multiple times
Outline: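 Run per the published AstraZeneca-type rat hepatocyte stability protocol (Wernevik et al. panel). Values are mean intrinsic clearance, Clint in μl/min/10^6 cells; geometric mean used for repeated runs.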

[5] = Human Hepatocyte Stability (Test D); format: in vitro ADME; settings: human, cryopreserved pooled human hepatocytes (LiverPool 10-Donor), geometric mean if run multiple times
Description: Human Hepatocyte Stability (Test D)
The metabolic stability of compounds in human hepatocytes was assessed using the following protocol:
1. Prepare 10 mM stock solutions of compound and control compounds in appropriate solvent (DMSO). Place incubation medium (L-15 Medium) in a 37° C. water bath, and allow warming for at least 15 minutes prior to use.
2. Add 80 μL of acetonitrile to each well of the 96-well deep well plate (“Quenching plate”).
3. In a new 96-well plate, dilute the 10 mM test compounds and the control compounds to 100 μM by combining 198 μL of acetonitrile and 2 μL of 10 mM stock solution.
4. Remove a vial of cryopreserved (less than −150° C.) human hepatocytes (LiverPool™ 10-Donor Human hepatocytes obtained from Bioreclamation IVT (Product No. S01205)) from storage, ensuring that vials remain at cryogenic temperatures until thawing process ensues. As quickly as possible, thaw the cells by placing the vial in a 37° C. water bath and gently shaking the vials. Vials should remain in water bath until all ice crystals have dissolved and are no longer visible. After thawing is complete, spray vial with 70% ethanol, transfer the vial to a bio-safety cabinet.
5. Open the vial and pour the contents into the 50 mL conical tube containing thawing medium. Place the 50 mL conical tube into a centrifuge and spin at 100 g for 10 minutes (room temperature).
6. Using Cellometer® Vision, count cells and determine the viable cell density. Cells with poor viability (<80% viability) are not acceptable for use.
7. Transfer 247.5 μL of hepatocytes into each well of a 96-well cell incubation plate. Place the plate on Eppendorf Thermomixer Comfort plate shaker to allow the hepatocytes to warm for 10 minutes.
8. Add 2.5 μL of 100 μM test compound or control compounds into an incubation well containing cells to initiate the reaction.
9. Incubate the plate at 37° C. and 900 rpm on an Eppendorf Thermomixer Comfort plate shaker.
10. Centrifuge the quenching plates for 20 minutes at 4,000 rpm. Transfer 30 μL of supernatant of each compound into a 96-well analysis plate. 4 compounds are pooled together into one cassette. Then dilute the pooled sample by adding of 180 μl of pure water. All incubations are performed in singlicate.
All calculations were carried out using Microsoft Excel. Peak areas were determined from extracted ion chromatograms. In vitro intrinsic clearance (in vitro Clint, in μL/min/10^6 cells) of parent compound was determined by regression analysis of the Ln percent parent disappearance vs. time curve. The in vitro intrinsic clearance (in vitro Clint, in μL/min/10^6 cells) reported in Table 36, and was determined from the slope value using the following equation: in vitro Clint=kV/N
V=incubation volume (0.25 mL);
N=number of hepatocytes per well (0.25×10^6 cells)
Where the assay was run multiple times for the same compound, the geometric mean is reported.

SMILES | Test A Sinf [1] [%] | EC50 [1] [nM] | solubility [2] [µM] | microsomal CLint [3] [µL/min/mg] | hepatocyte CLint [4] [µL/min/1e6 cells] | hepatocyte CLint at 1 µM [5] [µL/min/1e6 cells]
COc1cc(F)c(O[C@H]2CC[C@@H](C(=O)O)CC2)cc1C(=O)N[C@@H]1[C@@H]2C[C@@H]([C@H]3OCO[C@@H]23)[C@@H]1C(=O)Nc1cccc(S(=O)(=O)C(F)(F)F)c1 [Example 461, (1S,4s)-4-(2-Fluoro-4-methoxy-5-(((3aS,4S,5R,6S,7R,7aR)-6-((3-((trifluoromethyl)sulfonyl)phenyl)carbamoyl)hexahydro-4,7-methanobenzo[d][1,3]dioxol-5-yl)carbamoyl)phenoxy)cyclohexane-1-carboxylic acid] | 100 | 190 | 980 (≈ 687 µg/mL) | 7.5 | 7.4 | 2.9
COc1cc(F)c(-c2ccc(C(=O)O)c(O)c2)cc1C(=O)N[C@@H]1[C@H]2CC[C@H](C2)[C@@H]1C(=O)Nc1cccc(S(=O)(=O)C(F)(F)F)c1 [Example 247] | 104 | 50 | 190 (≈ 124 µg/mL) | 14 | 12 | 9.5
COc1cc(F)c(-c2cccc(C[C@@H](C(=O)O)N(C)C)c2)cc1C(=O)N[C@@H]1[C@H]2CC[C@H](C2)[C@@H]1C(=O)Nc1cccc(S(=O)(=O)C(F)(F)F)c1 (racemic) [Example 293] | 118 | 390 | 21 (≈ 14.8 µg/mL) | 27 | 41 | 8.4
COc1cc(F)c(O[C@H]2CC[C@@](C)(C(=O)O)CC2)cc1C(=O)N[C@@H]1CCC[C@@H]1C(=O)N[C@H](C)C(C)(C)C [Example 65, (1S,4s)-4-(5-(((1R,2S)-2-(((R)-3,3-Dimethylbutan-2-yl)carbamoyl)cyclopentyl)carbamoyl)-2-fluoro-4-methoxyphenoxy)-1-methylcyclohexane-1-carboxylic acid] | 99 | 160 | > 1000 | 5.5 | 9.7 | 3.1
COc1cc(F)c(O[C@H]2CC[C@@H](C(=O)O)CC2)cc1C(=O)N[C@@H]1[C@H]2CC[C@H](C2)[C@@H]1C(=O)N[C@H](C)C(C)(C)C [Example 200] | 100 | 590 | 55 (≈ 29.3 µg/mL) | 32 | 15 | 3.7
COc1cc(F)c(O[C@H]2CC[C@@](C)(C(=O)O)CC2)cc1C(=O)N[C@@H]1CCC[C@@H]1C(=O)Nc1cccc(S(=O)(=O)C(F)(F)F)c1 [Example 351] | 109 | 18 | 590 (≈ 380 µg/mL) | 64 | 46 | 15
COc1cc(F)c(O[C@H]2CC[C@@](C)(C(=O)O)CC2)cc1C(=O)N[C@H]1[C@@H]2CC[C@@H](C2)[C@H]1C(=O)Nc1ccc(F)c(S(F)(F)(F)(F)F)c1 [Example 206, (1R,4s)-4-(2-Fluoro-5-(((1R,2S,3R,4S)-3-((4-fluoro-3-(pentafluoro-λ6-sulfaneyl)phenyl)carbamoyl)bicyclo[2.2.1]heptan-2-yl)carbamoyl)-4-methoxyphenoxy)-1-methylcyclohexane-1-carboxylic acid] | 99 | > 150 | 35 (≈ 23.9 µg/mL) | 42 | 14 | 49
COc1cc(F)c(O[C@H]2CC[C@@](C)(C(=O)O)CC2)cc1C(=O)N[C@@H]1CCC[C@@H]1C(=O)NCC1(C)CCC1 [Example 67] | 105 | 270 | > 1000 | < 3 | 18 | 2.6
COc1cc(F)c(-c2cnc(CCC(=O)O)cn2)cc1C(=O)N[C@@H]1[C@H]2CC[C@H](C2)[C@@H]1C(=O)Nc1cccc(S(=O)(=O)C(F)(F)F)c1 [Example 238] | 102 | 140 | 890 (≈ 592 µg/mL) | 42 | 27 | 13
CCC(CC)CNC(=O)[C@H]1[C@@H]2CC[C@@H](C2)[C@H]1NC(=O)c1cc(O[C@H]2CC[C@@H](C(=O)O)CC2)c(F)cc1OC [Example 197, (1S,4s)-4-(5-(((1S,2R,3S,4R)-3-((2-ethylbutyl)carbamoyl)bicyclo[2.2.1]heptan-2-yl)carbamoyl)-2-fluoro-4-methoxyphenoxy)cyclohexane-1-carboxylic acid] | 106 | 1400 | 1000 (≈ 533 µg/mL) | 45 | 28 | 12
COc1cc(F)c(O[C@H]2CC[C@@](C)(C(=O)O)CC2)cc1C(=O)NC1C(C(=O)Nc2cccc(S(=O)(=O)C(F)(F)F)c2)CC2OCOC21 (single isomer, unassigned) [Example 512, (1R,4s)-4-(2-Fluoro-4-methoxy-5-(((3aR*,4S*,5S*,6aS*)-5-((3-((trifluoromethyl)sulfonyl)phenyl)carbamoyl)tetrahydro-4H-cyclopenta[d][1,3]dioxol-4-yl)carbamoyl)phenoxy)-1-methylcyclohexane-1-carboxylic acid] | 104 |  | 880 (≈ 606 µg/mL) | 12 | 25 | 4.2
